pKi: −log10 of the molar value.
Assays:
Type in all cases: biochemical
[1] = biological target: T1, JAK1 (Homo sapiens, UniProt P23458); test: JAK1 inhibition (Table 4); settings: read-out: JAK1 Ki
T1 construct: made in house; host or cells: SF9 insect cells (baculovirus)

[2] = biological target: T2, JAK2 (Homo sapiens, UniProt O60674); test: JAK2 inhibition (Table 4); settings: read-out: JAK2 Ki
T2 construct: made in house; host or cells: SF9 insect cells (baculovirus)

[3] = biological target: T3, TYK2 (Homo sapiens, UniProt P29597); test: TYK2 inhibition (Table 4)
T3 construct: made in house; host or cells: SF9 insect cells (baculovirus)
T3 sequence (P29597 873-1187): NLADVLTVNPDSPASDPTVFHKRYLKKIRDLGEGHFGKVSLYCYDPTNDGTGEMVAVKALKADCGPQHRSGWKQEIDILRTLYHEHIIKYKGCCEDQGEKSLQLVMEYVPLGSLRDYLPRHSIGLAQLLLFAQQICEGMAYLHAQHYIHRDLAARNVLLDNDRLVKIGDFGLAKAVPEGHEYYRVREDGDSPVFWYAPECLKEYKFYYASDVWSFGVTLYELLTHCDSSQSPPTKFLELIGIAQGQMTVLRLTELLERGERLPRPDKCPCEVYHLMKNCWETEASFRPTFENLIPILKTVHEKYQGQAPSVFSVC

[4] = biological target: T4, JAK3 (Homo sapiens, UniProt P52333); test: JAK3 inhibition (Table 4); settings: read-out: JAK3 Ki
T4 construct: made in house; host or cells: SF9 insect cells (baculovirus)
T4 sequence (P52333 783-1124): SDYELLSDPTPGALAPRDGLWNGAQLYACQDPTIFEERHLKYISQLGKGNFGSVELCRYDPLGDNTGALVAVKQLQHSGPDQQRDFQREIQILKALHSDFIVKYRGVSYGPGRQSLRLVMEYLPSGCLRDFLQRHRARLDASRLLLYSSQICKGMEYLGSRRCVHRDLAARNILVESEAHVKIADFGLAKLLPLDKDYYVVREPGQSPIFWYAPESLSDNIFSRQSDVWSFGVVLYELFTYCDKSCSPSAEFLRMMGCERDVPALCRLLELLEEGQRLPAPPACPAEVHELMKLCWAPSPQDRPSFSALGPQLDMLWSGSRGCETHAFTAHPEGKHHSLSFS

T1 sequence (P23458 852-1154): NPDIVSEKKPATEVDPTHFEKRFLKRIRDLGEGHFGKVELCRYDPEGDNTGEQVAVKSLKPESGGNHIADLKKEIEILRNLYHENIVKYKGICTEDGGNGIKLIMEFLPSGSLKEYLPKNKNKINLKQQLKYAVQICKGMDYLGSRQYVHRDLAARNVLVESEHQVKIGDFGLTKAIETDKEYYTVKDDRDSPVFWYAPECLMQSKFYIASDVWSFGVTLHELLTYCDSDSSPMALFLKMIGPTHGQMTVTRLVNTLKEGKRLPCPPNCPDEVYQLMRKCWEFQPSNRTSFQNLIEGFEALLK
T2 sequence (O60674 812-1132): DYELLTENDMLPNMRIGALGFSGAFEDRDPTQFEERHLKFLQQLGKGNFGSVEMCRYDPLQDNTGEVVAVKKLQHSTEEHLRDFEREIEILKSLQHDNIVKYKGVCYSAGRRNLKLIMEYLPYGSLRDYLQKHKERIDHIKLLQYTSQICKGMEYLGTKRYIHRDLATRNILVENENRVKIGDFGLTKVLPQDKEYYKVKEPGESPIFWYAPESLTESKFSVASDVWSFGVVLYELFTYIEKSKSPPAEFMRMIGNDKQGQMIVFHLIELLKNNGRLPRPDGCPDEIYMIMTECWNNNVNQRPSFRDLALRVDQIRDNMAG

In the case of `CC(O)c1nc2cnc3[nH]ccc3c2n1CC1CCCO1` (stereo not shown) [Example 700, 1-[1-(Tetrahydro-furan-2-ylmethyl)-1,6-dihydro-1,2,3,5,6-tetraaza-as-indacen-2-yl]-ethanol], the pKi [1] was 6.32, the pKi [2] was 6.21 and the pKi [3] was 5.84. The pKi [4] was 6.26.

With `Cc1nc2cnc3[nH]ccc3c2n1[C@H](C)CO` [Example 421, (R)-2-(2-Methyl-6H-1,3,5,6-tetraaza-as-indacen-1-yl)-propan-1-ol] the pKi [1] was 6.60, the pKi [2] was 6.13 and the pKi [3] was 5.63. The pKi [4] was 6.36.

Compound `N#CCCN1CCC(n2c(COC3CCOCC3)nc3cnc4[nH]ccc4c32)CC1` [Example 837, 3-{4-[2-(Tetrahydro-pyran-4-yloxymethyl)-6H-1,3,5,6-tetraaza-as-indacen-1-yl]-piperidin-1-yl}-propionitrile] has a pKi [1] of 7.40, a pKi [2] of 7.08 and a pKi [3] of 6.53. For the same compound, the pKi [4] was 6.94.

In the case of `OC1CCCC(n2nnc3cnc4[nH]ccc4c32)C1` (single isomer, unassigned) [Example 552, 3-(6H-1,2,3,5,6-Pentaaza-as-indacen-1-yl)-cyclohexanol], the pKi [1] was 8.18, the pKi [2] was 7.99 and the pKi [3] was 7.62. For the same compound, the pKi [4] was 7.93.

In the case of `OCCc1nc2cnc3[nH]ccc3c2n1[C@@H]1CCCN(Cc2ccccc2)C1` [Example 15, 2-[1-((R)-1-Benzyl-piperidin-3-yl)-1,6-dihydro-1,2,3,5,6-tetraaza-as-indacen-2-yl]ethanol], the pKi [1] was 6.99, the pKi [2] was 7.06 and the pKi [3] was 6.35. The pKi [4] was 6.11.

With `O=C(N[C@H]1CC[C@H](n2cnc3cnc4[nH]ccc4c32)CC1)c1ccncc1` [Example 570, trans N-[4-(6H-1,3,5,6-Tetraaza-as-indacen-1-yl)-cyclohexyl]-isonicotinamide] the pKi [1] was 7.95, the pKi [2] was 8.00 and the pKi [3] was 7.11. The pKi [4] was 6.94.

Work on `O=C(NC1CCC(n2cnc3cnc4[nH]ccc4c32)CC1)N1CCC1` (stereo not shown) [Example 746, azetidine-1-carboxylic acid [4-(6H-1,3,5,6-tetraaza-as-indacen-1-yl)-cyclohexyl]-amide] yielded a pKi [1] of 7.88, a pKi [2] of 7.67 and a pKi [3] of 7.12. For the same compound, the pKi [4] was 6.74.

In the case of `CC(C)N1CC(c2nc3cnc4[nH]ccc4c3n2C2CCN(CCC#N)CC2)CC1=O` (racemic) [Example 388, 3-{4-[2-(1-Isopropyl-5-oxo-pyrrolidin-3-yl)-6H-1,3,5,6-tetraaza-as-indacen-1-yl]-piperidin-1-yl}-propionitrile], the pKi [1] was 7.63, the pKi [2] was 6.78 and the pKi [3] was 6.35. For the same compound, the pKi [4] was 7.11.

In the case of `CC1(C)CC1C(=O)N1CCC[C@@H](n2cnc3cnc4[nH]ccc4c32)C1` (stereo partly drawn) [Example 226, (2,2-Dimethyl-cyclopropyl)-[(R)-3-(6H-1,3,5,6-tetraaza-as-indacen-1-yl)-piperidin-1-yl]-methanone], the pKi [1] was 7.79, the pKi [2] was 7.74 and the pKi [3] was 7.09. The pKi [4] was 7.11.

With `FCCN1CCC(n2cnc3cnc4[nH]ccc4c32)CC1` [Example 212, 1-[1-(2-Fluoro-ethyl)-piperidin-4-yl]-1,6-dihydro-1,2,3,5,6-tetraaza-as-indacene] the pKi [1] was 8.66, the pKi [2] was 8.49 and the pKi [3] was 7.93. The pKi [4] was 7.23.

`CC(C)(C)OC(=O)N1CCCC[C@@H]1CN[C@H]1CC[C@H](n2cnc3cnc4[nH]ccc4c32)CC1` [Example 563, trans (R)-2-{[4-(6H-1,3,5,6-Tetraaza-as-indacen-1-yl)-cyclohexylamino]-methyl}-piperidine-1-carboxylic acid tert-butyl ester] was tested, and the pKi [1] was 7.04, the pKi [2] was 6.21 and the pKi [3] was 5.48. For the same compound, the pKi [4] was 5.63.

With `Cc1nc2cnc3[nH]ccc3c2n1[C@H]1CC[C@H](N)CC1` [Example 273, 4-(2-Methyl-6H-1,3,5,6-tetraaza-as-indacen-1-yl)-cyclohexylamine] the pKi [1] was 8.28, the pKi [2] was 7.72 and the pKi [3] was 7.32. For the same compound, the pKi [4] was 7.72.

`O=S(=O)(Cc1ccccc1)N1CCC(n2cnc3cnc4[nH]ccc4c32)CC1` [Example 449, 1-(1-Phenylmethanesulfonyl-piperidin-4-yl)-1,6-dihydro-1,3,5,6-tetraaza-as-indacene] gave a pKi [1] of 8.46, a pKi [2] of 8.09 and a pKi [3] of 7.24. For the same compound, the pKi [4] was 7.49.

For `CNc1nc2cnc3[nH]ccc3c2n1C1CCN(Cc2cccc(C#N)c2)CC1` [Example 772, 3-[4-(2-Methylamino-6H-1,3,56-tetraaza-as-indacen-1-yl)-piperidine-1-yl-methyl]-benzonitrile], the pKi [1] was 8.87, the pKi [2] was 8.24 and the pKi [3] was 6.49. The pKi [4] was 7.36.

`COC[C@H](C)n1c(C)nc2cnc3[nH]ccc3c21` [Example 424, 1-((S)-2-Methoxy-1-methyl-ethyl)-2-methyl-1,6-dihydro-1,3,5,6-tetraaza-as-indacene] was tested, and the pKi [1] was 7.33, the pKi [2] was 7.20 and the pKi [3] was 6.50. The pKi [4] was 7.48.

Compound `N#CCCN1CCC(n2c(CNS(=O)(=O)C3CC3)nc3cnc4[nH]ccc4c32)CC1` [Example 497, Cyclopropanesulfonic acid {1-[1-(2-cyano-ethyl)-piperidin-4-yl]-1,6-dihydro-1,3,5,6-tetraaza-as-indacen-2-ylmethyl}-amide] has a pKi [1] of 7.89, a pKi [2] of 7.38 and a pKi [3] of 6.77. The pKi [4] was 7.12.

Compound `c1cc2c(ncc3ncn([C@@H]4CCCN(C5COC5)C4)c32)[nH]1` [Example 71, (R)-1-(1-Oxetan-3-yl-piperidin-3-yl]-1,6-dihydro-1,3,5,6-tetraaza-as-indacene] has a pKi [1] of 6.58, a pKi [2] of 6.42 and a pKi [3] of 5.78. For the same compound, the pKi [4] was 6.51.

With `N#CCN1CCC(N[C@H]2CC[C@H](n3cnc4cnc5[nH]ccc5c43)CC2)CC1` [Example 568, trans {4-[4-(6H-1,3,5,6-Tetraaza-as-indacen-1-yl)-cyclohexylamino]-piperidin-1-yl}-acetonitrile] the pKi [1] was 8.54, the pKi [2] was 7.31 and the pKi [3] was 7.19. For the same compound, the pKi [4] was 7.22.

In the case of `O=C(CCC(F)(F)F)NC1CCC(n2cnc3cnc4[nH]ccc4c32)C1` (racemic) [Example 732, 4,4,4-Trifluoro-N-[3-(6H-1,3,5,6-tetraaza-as-indacen-1-yl)-cyclopentyl]-butyramide], the pKi [1] was 8.55, the pKi [2] was 8.07 and the pKi [3] was 7.19. The pKi [4] was 7.79.

`CC(C)OC(=O)N[C@H]1CC[C@H](n2cnc3cnc4[nH]ccc4c32)CC1` [Example 310, [(R)-4-(6H-1,3,5,6-Tetraaza-as-indacen-1-yl)-cyclohexyl]-carbamic acid isopropyl ester] gave a pKi [1] of 8.05, a pKi [2] of 7.58 and a pKi [3] of 6.70. The pKi [4] was 6.67.

Compound `O=C(N1CCC[C@@H](n2cnc3cnc4[nH]ccc4c32)C1)C1(C(F)(F)F)CC1` [Example 228, [(R)-3-(6H-1,3,5,6-tetraaza-as-indacen-1-yl)-piperidin-1-yl]-(1-trifluoromethyl-cyclopropyl)-methanone] has a pKi [1] of 7.80, a pKi [2] of 8.22 and a pKi [3] of 7.36. The pKi [4] was 6.93.

With `O=C([C@@H]1COCCN1)N1CCC(n2cnc3cnc4[nH]ccc4c32)CC1` [Example 455, (S)-Morpholin-3-yl-[4-(6H-1,3,5,6-tetraaza-as-indacen-1-yl)-piperidin-1-yl]-methanone] the pKi [1] was 7.73, the pKi [2] was 7.11 and the pKi [3] was 6.58. For the same compound, the pKi [4] was 6.29.
